Our source for the remaining activity values is patent publication US20080200439A1, “Methods and compositions for modulating BK channel activity and vasodilation” (University of Tennessee Research Foundation, priority 2006, published 2008).

In the assay the target is T1, homomeric cbv1 (rslo1) channels (Rattus norvegicus, UniProt Q62976).
T1 construct: Full-length cDNA coding for cbv1-subunits was cloned from rat cerebral artery myocytes by PCR; expressed in transfected cells; host or cells: Xenopus laevis oocytes (cRNA injection)
The assay is described as follows: Inside-out patch-clamp of homomeric cbv1 channels expressed in Xenopus oocytes. The assay is classed as cell-based. Particulars: I/O patches, Ca2+i 10 μM, ±20 mV, read-out: Average NPo (% of control). The source says:
cRNA Preparation and Injection into Xenopus Oocytes. Full-length cDNA coding for cbv1-subunits was cloned from rat cerebral artery myocytes by PCR and ligated to the PCR-XL-TOPO cloning vector (Invitrogen Corp., Carlsbad, Calif., United States of America) (Jaggar et al., 2005). cDNA coding for cbv1-subunits was cleaved from the cloning vector by BamHI (Invitrogen Corp., Carlsbad, Calif., United States of America) and XhoI (Promega, Madison, Wis., United States of America) and directly inserted into the pOX vector for expression in Xenopus oocytes. pOX-cbv1 was linearized with NotI (Promega, Madison, Wis., United States of America) and transcribed in vitro using T3 polymerase. […]
Electrophysiology. […] Single-channel and macroscopic currents were recorded from inside-out (I/O) or outside-out (O/O) patches. […] Nominal free Ca^2+ was calculated with MaxChelator Sliders (C. Patton, Stanford University, California, United States of America) and validated experimentally using Ca^2+-selective electrodes (Corning Incorporated Science Products Division, Corning, N.Y., United States of America). […]
Currents were recorded using an EPC8 amplifier (HEKA Electronics, Lambrecht/Pfalz, Germany) at 1 kHz using a low-pass, eight-pole Bessel filter 902LPF (Frequency Devices, Haverhill, Mass., United States of America). […]
In general terms: In patch-clamp work, channel activity is measured electrically.

T1 sequence (Q62976 1-1148 isoform Q62976-2): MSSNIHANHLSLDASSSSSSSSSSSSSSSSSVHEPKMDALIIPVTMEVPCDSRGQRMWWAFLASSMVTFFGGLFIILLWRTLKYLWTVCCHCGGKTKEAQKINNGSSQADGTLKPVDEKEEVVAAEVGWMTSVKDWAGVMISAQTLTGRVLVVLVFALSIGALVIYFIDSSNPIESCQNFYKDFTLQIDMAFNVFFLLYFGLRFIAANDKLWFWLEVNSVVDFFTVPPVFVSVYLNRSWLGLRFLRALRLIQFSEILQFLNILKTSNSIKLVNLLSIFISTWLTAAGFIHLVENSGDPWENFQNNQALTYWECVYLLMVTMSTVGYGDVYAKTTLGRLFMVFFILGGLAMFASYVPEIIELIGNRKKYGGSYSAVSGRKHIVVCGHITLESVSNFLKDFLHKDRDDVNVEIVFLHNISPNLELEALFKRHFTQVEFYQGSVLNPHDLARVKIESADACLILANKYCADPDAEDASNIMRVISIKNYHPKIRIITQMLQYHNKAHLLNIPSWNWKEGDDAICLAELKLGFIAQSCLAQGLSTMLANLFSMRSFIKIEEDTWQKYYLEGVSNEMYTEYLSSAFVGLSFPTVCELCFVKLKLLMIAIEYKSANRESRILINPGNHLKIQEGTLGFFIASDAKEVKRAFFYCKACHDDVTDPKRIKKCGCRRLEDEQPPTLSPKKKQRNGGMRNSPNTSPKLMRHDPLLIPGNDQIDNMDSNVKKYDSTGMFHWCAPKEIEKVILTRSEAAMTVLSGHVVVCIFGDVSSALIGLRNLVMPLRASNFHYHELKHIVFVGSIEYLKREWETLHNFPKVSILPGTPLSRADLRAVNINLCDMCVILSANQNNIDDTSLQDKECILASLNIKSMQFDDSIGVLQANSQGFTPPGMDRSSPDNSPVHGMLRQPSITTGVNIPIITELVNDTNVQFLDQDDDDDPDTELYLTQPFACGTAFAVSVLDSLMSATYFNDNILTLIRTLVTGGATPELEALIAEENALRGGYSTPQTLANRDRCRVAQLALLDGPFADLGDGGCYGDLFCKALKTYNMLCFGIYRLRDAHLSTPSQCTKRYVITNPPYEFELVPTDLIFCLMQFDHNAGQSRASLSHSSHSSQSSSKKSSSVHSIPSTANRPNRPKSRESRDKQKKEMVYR

Regarding `C[C@H](CCC(=O)O)[C@H]1CC[C@H]2[C@@H]3CC[C@@H]4C[C@H](O)CC[C@]4(C)[C@H]3CC[C@]12C` [LC, 5β-cholanic acid 3α-ol], the remaining activity at 150 µM was 112 ± 13%.
